Results on 16 molecules are retold here after patent publication US20230131899A1, “INHIBITORS OF MICROBIALLY INDUCED AMYLOID” (Axial Therapeutics, Inc., priority 2020, published 2023).

Where two headings read alike, the source gives them in different places.

This experiment deals with CsgA gene expression (csgBAC promoter-GFP reporter) in E. coli UTI89. The experiment can be described thus: In vitro live cell fluorescent reporter assay of CsgA transcription (Reporter Assay). The class given is cell-based. Conditions: Escherichia coli. The method in brief: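 Compounds at 0.14–100 μM (1% DMSO final) incubated 20 h at 27 °C in YESCA broth with UTI89 carrying a single-copy GFP reporter under the csgBAC intergenic promoter region, inoculum OD600 0.003. Fluorescence normalized to vehicle wells gave IC50 and 50%-of-vehicle concentration; OD600 reduction >10% flagged growth impact.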

Setting [1] is: read-out: Reporter Assay Abs IC50 (activity range), median Abs IC50 in the CsgA reporter assay, class symbol.
[2] abbreviates: read-out: Reporter Assay Abs IC50 (μM), median Abs IC50 in the CsgA reporter assay, N/A = maximum expression reduction is <50% of control.

Regarding `COc1ccc(CN2C[C@@H](C(=O)O)n3c(c(-c4cccc(C(F)(F)F)c4)c(Cc4cccc5ccccc45)cc3=O)S2(=O)=O)cc1` (single isomer, unassigned) [Compound 026a], the IC50 under setting [1] is 1.3 to 4.5 µM and the IC50 under setting [2] stood at 2 µM.
The matching figures for `CN(C)CCN1CC(C(=O)O)n2c(c(-c3cccc(C(F)(F)F)c3)c(Cc3cccc4ccccc34)cc2=O)S1(=O)=O` (centres unmarked) [Compound 017, 2-(2-(dimethylamino)ethyl)-8-(naphthalen-1-ylmethyl)-6-oxo-9-(3-(trifluoromethyl)phenyl)-3,4-dihydro-2H,6H-pyrido[1,2-e][1,2,5]thiadiazine-4-carboxylic acid 1,1-dioxide]: 1.3 to 4.5 µM and 2.7 µM.
With `O=C(O)CN1CC(C(=O)O)n2c(c(-c3cccc(C(F)(F)F)c3)c(Cc3cccc4ccccc34)cc2=O)S1(=O)=O` (centres unmarked) [Compound 018, 2-(carboxymethyl)-8-(naphthalen-1-ylmethyl)-6-oxo-9-(3-(trifluoromethyl)phenyl)-3,4-dihydro-2H,6H-pyrido[1,2-e][1,2,5]thiadiazine-4-carboxylic acid 1,1-dioxide], the IC50 under setting [1] was more than 10 µM and the IC50 under setting [2] came out at 148 µM.
As to `O=C(O)C1CSc2c(-c3cccc(C(F)(F)F)c3)c(Cc3cccc4ccccc34)nc(=O)n21` (centres unmarked) [Compound 022, 7-(naphthalen-1-ylmethyl)-5-oxo-8-(3-(trifluoromethyl)phenyl)-2,3-dihydro-5H-thiazolo[3,2-c]pyrimidine-3-carboxylic acid], the IC50 was 1.3 to 4.5 µM under setting [1] and 4.1 µM under setting [2].
As for `Nc1c(Cc2cccc3ccccc23)c(-c2cccc(C(F)(F)F)c2)c2n(c1=O)C(C(=O)O)CS2(=O)=O` (centres unmarked) [Compound 023, 6-amino-7-(naphthalen-1-ylmethyl)-5-oxo-8-(3-(trifluoromethyl)phenyl)-2,3-dihydro-5H-thiazolo[3,2-a]pyridine-3-carboxylic acid 1,1-dioxide], the IC50 is more than 10 µM under setting [1] and 19.6 µM under setting [2].
Take `C=CCCN1CC(C(=O)O)n2c(c(-c3cccc(C(F)(F)F)c3)c(Cc3cccc4ccccc34)cc2=O)S1(=O)=O` (centres unmarked) [Compound 024, 2-(but-3-en-1-yl)-8-(naphthalen-1-ylmethyl)-6-oxo-9-(3-(trifluoromethyl)phenyl)-3,4-dihydro-2H,6H-pyrido[1,2-e][1,2,5]thiadiazine-4-carboxylic acid 1,1-dioxide]: the IC50 runs as follows: under setting [1], 4.6 to 10 µM; under setting [2], 9.9 µM.
On to `NC(=O)CN1CC(C(=O)O)n2c(c(-c3cccc(C(F)(F)F)c3)c(Cc3cccc4ccccc34)cc2=O)S1(=O)=O` (centres unmarked) [Compound 028, 2-(2-amino-2-oxoethyl)-8-(naphthalen-1-ylmethyl)-6-oxo-9-(3-(trifluoromethyl)phenyl)-3,4-dihydro-2H,6H-pyrido[1,2-e][1,2,5]thiadiazine-4-carboxylic acid 1,1-dioxide], for which the IC50 is, setting by setting: under setting [1], more than 10 µM; under setting [2], 18.2 µM.
For the molecule `CN1CC(C(N)=O)n2c(c(-c3cccc(C(F)(F)F)c3)c(Cc3cccc4ccccc34)cc2=O)S1(=O)=O` (centres unmarked) [Compound 030, 2-methyl-8-(naphthalen-1-ylmethyl)-6-oxo-9-(3-(trifluoromethyl)phenyl)-3,4-dihydro-2H,6H-pyrido[1,2-e][1,2,5]thiadiazine-4-carboxamide 1,1-dioxide], the IC50 under setting [1] was in the range of 4.6 to 10 µM and the IC50 under setting [2] is 5 µM.
For the molecule `CN1CC(C(=O)O)n2c(c(-c3cccc(C(F)(F)F)c3)c(Cc3cccc4ccccc34)c(N)c2=O)S1(=O)=O` (centres unmarked) [Compound 074, 7-amino-2-methyl-8-(naphthalen-1-ylmethyl)-6-oxo-9-(3-(trifluoromethyl)phenyl)-3,4-dihydro-2H,6H-pyrido[1,2-e][1,2,5]thiadiazine-4-carboxylic acid 1,1-dioxide], the IC50 is more than 10 µM under setting [1] and 29.2 µM under setting [2].
On the same counts, the results for `CN(C)Cc1c(Cc2cccc3ccccc23)c(-c2cccc(C(F)(F)F)c2)c2n(c1=O)C(C(=O)O)CS2` (centres unmarked) [Compound 075, 6-((dimethylamino)methyl)-7-(naphthalen-1-ylmethyl)-5-oxo-8-(3-(trifluoromethyl)phenyl)-2,3-dihydro-5H-thiazolo[3,2-a]pyridine-3-carboxylic acid] are 4.6 to 10 µM and 5.6 µM.
Regarding `CN1CC(C(=O)O)n2c(c(-c3cccc(C(F)(F)F)c3)c(Cc3cccc4ccccc34)c(C(N)=O)c2=O)S1(=O)=O` (centres unmarked) [Compound 109, 7-carbamoyl-2-methyl-8-(naphthalen-1-ylmethyl)-6-oxo-9-(3-(trifluoromethyl)phenyl)-3,4-dihydro-2H,6H-pyrido[1,2-e][1,2,5]thiadiazine-4-carboxylic acid 1,1-dioxide], the IC50 was 1.3 to 4.5 µM under setting [1] and 1.9 µM under setting [2].
`CCc1c(Cc2cccc3ccccc23)c(-c2cccc(C(F)(F)F)c2)c2n(c1=O)C(C(=O)O)CN(C1CCCCC1)S2(=O)=O` (centres unmarked) [Compound 116, 2-cyclohexyl-7-ethyl-8-(naphthalen-1-ylmethyl)-6-oxo-9-(3-(trifluoromethyl)phenyl)-3,4-dihydro-2H,6H-pyrido[1,2-e][1,2,5]thiadiazine-4-carboxylic acid 1,1-dioxide]: the IC50 by setting is: under setting [1], 1.3 to 4.5 µM; under setting [2], 1.5 µM.
On the same counts, the results for `CN1CC(C(=O)O)n2c1c(-c1cccc(C(F)(F)F)c1)c(Cc1cccc3ccccc13)c(Br)c2=O` (centres unmarked) [Compound 119, 6-bromo-1-methyl-7-(naphthalen-1-ylmethyl)-5-oxo-8-(3-(trifluoromethyl)phenyl)-1,2,3,5-tetrahydroimidazo[1,2-a]pyridine-3-carboxylic acid] are 1.3 to 4.5 µM and 2.5 µM.
As for `O=C(O)C1CN(CCCO)S(=O)(=O)c2c(-c3cccc(C(F)(F)F)c3)c(Cc3cccc4ccccc34)c(NC3CCCC3)c(=O)n21` (centres unmarked) [Compound 120, 7-(cyclopentylamino)-2-(3-hydroxypropyl)-8-(naphthalen-1-ylmethyl)-6-oxo-9-(3-(trifluoromethyl)phenyl)-3,4-dihydro-2H,6H-pyrido[1,2-e][1,2,5]thiadiazine-4-carboxylic acid 1,1-dioxide], the IC50 is 1.3 to 4.5 µM under setting [1] and 3.1 µM under setting [2].
The matching figures for `O=C(O)C1CN(CCCCO)S(=O)(=O)c2c(-c3cccc(C(F)(F)F)c3)c(Cc3cccc4ccccc34)c(NC3CCCC3)c(=O)n21` (centres unmarked) [Compound 121, 7-(cyclopentylamino)-2-(4-hydroxybutyl)-8-(naphthalen-1-ylmethyl)-6-oxo-9-(3-(trifluoromethyl)phenyl)-3,4-dihydro-2H,6H-pyrido[1,2-e][1,2,5]thiadiazine-4-carboxylic acid 1,1-dioxide]: 1.3 to 4.5 µM and 2 µM.
Consider `O=C(O)C1CN(CCCCCO)S(=O)(=O)c2c(-c3cccc(C(F)(F)F)c3)c(Cc3cccc4ccccc34)c(NC3CCCC3)c(=O)n21` (centres unmarked) [Compound 122, 7-(cyclopentylamino)-2-(5-hydroxypentyl)-8-(naphthalen-1-ylmethyl)-6-oxo-9-(3-(trifluoromethyl)phenyl)-3,4-dihydro-2H,6H-pyrido[1,2-e][1,2,5]thiadiazine-4-carboxylic acid 1,1-dioxide], for which the IC50 is, setting by setting: under setting [1], 1.3 to 4.5 µM; under setting [2], 1.9 µM.
